Experimental data published in EP2607478A1, “Phenanthroline treated MSC” (Universiteit Twente, priority 2011, dated 2013).

Legend:
MSCs [1] = assay: Gene expression analysis by real-time qPCR in treated MSCs; assay type: cell-based, Human; conditions: for expression of Il-8, VEGF, KDR and Foxc2: 2 days treatment, medium refreshed, 2 more days in basic medium (Figure 8); for VEGF expression: after 2 days of treatment and 2 more days of incubation with fresh medium (Figure 8)
Procedure: MSCs were seeded in triplicate in 6-well plates at 5000 cells/cm^2 and allowed to attach for 10-15 hours in proliferation medium. Upon reaching near confluency, cells were treated as described above. After 2 days of treatment and 2 subsequent days of incubation with fresh medium, cells were lysed immediately with TRIzol. RNA was isolated using a Bioke RNA II nucleospin RNA isolation kit (Machery Nagel) and RNA concentrations were measured using an ND100 spectrophotometer (Nanodrop technologies, USA). cDNA was synthesized from 100 ng of RNA, using iScript (BioRad) according to the manufacturer's protocol. For qualitative PCR, a master mix, containing distilled water, forward primer, reverse primer (Sigma Genosys), BSA, and SYBR green I mix (all from Invitrogen) was prepared. Real-time qPCR was performed in a Light-Cycler (Roche). Light-Cycler data was analyzed using the fit points method of Light-Cycler software. The baseline was set at the lower log-linear part above baseline noise and the crossing […] (Ct value) was determined. Ct values were normalized to the 18S housekeeping gene and delta Ct (Ct, control ― Ct, sample) was used to calculate the upregulation in gene expression (53).

MSCs [2] = assay: Protein expression analysis (Luminex assay) of treated MSCs; assay type: cell-based, Human; conditions: primary MSCs, 2 days; for VEGF secretion / secretion of IL-8: 150 µM DFO or 200 µM PHE, measured in cell lysates; for secretion of IL-8: basic 15-25 pg/mL
Procedure: MSCs were seeded at 5000 cells/cm^2 in T25 flasks. […] After 2 days, cells were lysed with 250 µL RIPA buffer with addition of protease/phosphatase inhibitors (Roche). Total protein concentrations were determined using a BCA kit (Pierce) and 10 µg of total protein was used to determine concentrations of VEGF, IL-8, basic fibroblast growth factor (bFGF), […] stimulating factor (G-CSF) and epidermal growth factor (EGF) using a Luminex assay (Invitrogen) according to the manufacturer's protocol. Briefly, cells and standards were incubated with fluorescent beads, followed by incubation with a biotinylated detection antibody. After incubation with streptavidin-R-Phycoerythrin and washing, both the fluorescence of the coupled beads and the R-phycoerythrin were measured using a Luminex® FlexMap™.

[3] = 200 µM PHE, compared to DFO and hypoxia

c1cnc2c(c1)ccc1cccnc12 [PHE, 1, 10-phenanthroline]
expression of Il-8, VEGF, KDR and Foxc2 (MSCs [1]): still significantly increased | VEGF expression (MSCs [1]): still highly expressed | VEGF secretion (MSCs [2]): 65 pg/mL | secretion of IL-8 (MSCs [2]): 300 to 500 pg/mL | secretion of basic fibroblast growth factor (bFGF) (MSCs [2]; [3]): reduced | secretion of growth-colony stimulating factor (G-CSF) (MSCs [2]; [3]): reduced

CC(=O)N(O)CCCCCNC(=O)CCC(=O)N(O)CCCCCNC(=O)CCC(=O)N(O)CCCCCN [DFO, reference compound]
expression of Il-8, VEGF, KDR and Foxc2 (MSCs [1]): returned to basal levels | VEGF expression (MSCs [1]): comparable to non-treated cells | VEGF secretion (MSCs [2]): 140 pg/mL | secretion of IL-8 (MSCs [2]): 15 to 25 pg/mL
